{"source": "ChEMBL document CHEMBL5126519", "about": "“Tuberculosis drug discovery: Progression and future interventions in the wake of emerging resistance” (Eur J Med Chem, 2022)", "key": {"[1]": {"system": "Mycobacterium tuberculosis", "test": "Antimycobacterial activity against Mycobacterium tuberculosis", "assay_type": "functional"}, "[2]": {"system": "Mycobacterium tuberculosis", "test": "Antimycobacterial activity against drug-sensitive Mycobacterium tuberculosis", "assay_type": "functional"}, "[3]": {"system": "Mycobacterium tuberculosis", "test": "Antimycobacterial activity against Mycobacterium tuberculosis H37Rv by MABA assay", "assay_type": "functional"}, "[4]": {"system": "Mycobacterium tuberculosis", "test": "Antimycobacterial activity against Mycobacterium tuberculosis H37Rv by microplate alamar blue assay", "assay_type": "functional"}, "[5]": {"system": "Mycobacterium tuberculosis", "test": "Antimycobacterial activity against drug-susceptible Mycobacterium tuberculosis H37Rv", "assay_type": "functional"}, "[6]": {"test": "Inhibition of mammalian mitochondrial protein synthesis", "assay_type": "mitochondria, Mitochondria"}, "[7]": {"system": "Mycobacterium tuberculosis", "test": "Antimycobacterial activity against Mycobacterium tuberculosis H37Rv by agar dilution method", "assay_type": "functional"}, "[8]": {"system": "Mycobacterium tuberculosis", "test": "Antimycobacterial activity against Mycobacterium tuberculosis infected in mouse", "assay_type": "functional"}, "[9]": {"system": "Mycobacterium tuberculosis", "test": "Antimycobacterial activity against non-replicating Mycobacterium tuberculosis H37Rv by time kill kinetic assay", "assay_type": "functional"}, "[10]": {"system": "Mycobacterium tuberculosis", "test": "Antimycobacterial activity against Mycobacterium tuberculosis expressing GFP", "assay_type": "functional"}}, "note": "pIC50: −log10 of the molar value.", "data": [{"smiles": "O=c1nc(N2CCN(CC3CCCCC3)CC2)sc2c([N+](=O)[O-])cc(C(F)(F)F)cc12", "note": "[MACOZINONE]", "values": [{"measurement": "MIC", "setting": "[1]", "value": 0.00019, "unit": "µg/mL"}]}, {"smiles": "CN(C)[C@@H]1C(O)=C(C(=O)NCNCCCC[C@H](N)C(=O)O)C(=O)[C@@]2(O)C(O)=C3C(=O)c4c(O)cccc4[C@@](C)(O)[C@H]3C[C@@H]12", "note": "[LYMECYCLINE]", "values": [{"measurement": "MIC", "setting": "[1]", "value": 166, "unit": "µM"}]}, {"smiles": "Cc1cc(/C=C/c2ccc3cc(N(C)C)ccc3[n+]2C)c(C)n1-c1ccccc1.Cc1cc(/C=C/c2ccc3cc(N(C)C)ccc3[n+]2C)c(C)n1-c1ccccc1.O=C(O)c1cc2ccccc2c(Cc2c(O)c(C(=O)O)cc3ccccc23)c1O", "values": [{"measurement": "MIC99", "setting": "[2]", "value": 1.55, "unit": "µg/mL"}]}, {"smiles": "CC(=O)Oc1ccccc1C(=O)Nc1ncc([N+](=O)[O-])s1", "note": "[NITAZOXANIDE]", "values": [{"measurement": "MIC", "setting": "[1]", "value": 33.2, "unit": "µM"}]}, {"smiles": "Cc1c(C(=O)OCc2ccccc2)[n+]([O-])c2cc(F)c(-n3cncn3)cc2[n+]1[O-]", "values": [{"measurement": "MIC", "setting": "[3]", "value": "≤ 0.25", "unit": "µg/mL"}]}, {"smiles": "CCc1nc2ccc(Cl)cn2c1C(=O)NCc1ccc(N2CCC(c3ccc(OC(F)(F)F)cc3)CC2)cc1", "note": "[TELACEBEC]", "values": [{"measurement": "MIC", "setting": "[1]", "value": 0.008, "unit": "µg/mL"}]}, {"smiles": "COc1c(N2C[C@@H]3CCCN[C@@H]3C2)c(F)cc2c(=O)c(C(=O)O)cn(C3CC3)c12", "note": "[MOXIFLOXACIN]", "values": [{"measurement": "MIC", "setting": "[1]", "value": 1.1, "unit": "µM"}]}, {"smiles": "CC(C)(C)NCC(O)CSc1nc(-c2ccc(C(N)=O)s2)cs1", "note": "(stereo not drawn) [AROTINOLOL]", "values": [{"measurement": "MIC", "setting": "[4]", "value": 3.12, "unit": "µM"}]}, {"smiles": "C[C@]1(COc2ccc(N3CCC(Oc4ccc(OC(F)(F)F)cc4)CC3)cc2)Cn2cc([N+](=O)[O-])nc2O1", "note": "[DELAMANID]", "values": [{"measurement": "MIC", "setting": "[5]", "value": 0.0005, "unit": "µg/mL"}]}, {"smiles": "O[C@@H](c1cc(C(F)(F)F)nc2c(C(F)(F)F)cccc12)[C@H]1CCCCN1", "note": "[(S,R)-MEFLOQUINE]", "values": [{"measurement": "MIC", "setting": "[1]", "value": 10, "unit": "µM"}]}, {"smiles": "COC(=O)NC[C@H]1CN(c2ccc(N3CC4(COC4)C3)c(F)c2)C(=O)O1", "note": "[TBI-223]", "values": [{"measurement": "pIC50", "setting": "[6]", "value": "< 4.13"}]}, {"smiles": "COc1nc2ccc(Br)cc2cc1[C@@H](c1ccccc1)[C@@](O)(CCN(C)C)c1cccc2ccccc12", "note": "[BEDAQUILINE]", "values": [{"measurement": "MIC", "setting": "[7]", "value": 0.015, "unit": "µg/mL"}]}, {"smiles": "CCNC(=O)Nc1nc2nc(-c3cnc(C(C)(C)O)nc3)c(F)c([C@H]3CCCO3)c2[nH]1", "values": [{"measurement": "MIC", "setting": "[2]", "value": 0.03, "unit": "µg/mL"}]}, {"smiles": "CC(=O)NC[C@H]1CN(c2ccc(N3CCSCC3)c(F)c2)C(=O)O1", "note": "[SUTEZOLID]", "values": [{"measurement": "MIC", "setting": "[1]", "value": 0.062, "unit": "µg/mL"}]}, {"smiles": "CC(C)=CCC/C(C)=C/CNCCNC1C2CC3CC(C2)CC1C3", "note": "(stereo not drawn) [SQ109]", "values": [{"measurement": "MIC", "setting": "[1]", "value": 0.78, "unit": "µg/mL"}]}, {"smiles": "C[C@H]1COC2(CCN(c3nc(=O)c4cc(C(F)(F)F)cc([N+](=O)[O-])c4s3)CC2)O1", "note": "[BTZ-043]", "values": [{"measurement": "MIC", "setting": "[1]", "value": 0.001, "unit": "µg/mL"}]}, {"smiles": "CC1=NN(c2ccc(C)c(C)c2)C(=O)/C1=N\\Nc1cccc(-c2cccc(C(=O)O)c2)c1O", "note": "[ELTROMBOPAG]", "values": [{"measurement": "MIC", "setting": "[4]", "value": 6.25, "unit": "µM"}]}, {"smiles": "NC[C@H]1OB(O)c2c(OCCO)ccc(Cl)c21", "note": "[GANFEBOROLE]", "values": [{"measurement": "MIC", "setting": "[3]", "value": 0.08, "unit": "µM"}, {"measurement": "ED99", "setting": "[8]", "value": 0.4, "unit": "mg/kg"}]}, {"smiles": "CSc1ccc2c(c1)N(CCC1CCCCN1C)c1ccccc1S2", "note": "(stereo not drawn) [THIORIDAZINE]", "values": [{"measurement": "MIC", "setting": "[1]", "value": 19.6, "unit": "µM"}]}, {"smiles": "COc1ccc(CCN(C)CCCC(C#N)(c2ccc(OC)c(OC)c2)C(C)C)cc1OC", "note": "(stereo not drawn) [VERAPAMIL]", "values": [{"measurement": "MIC", "setting": "[9]", "value": 512, "unit": "µM"}]}, {"smiles": "O=[N+]([O-])c1cn2c(n1)OC[C@@H](OCc1ccc(OC(F)(F)F)cc1)C2", "note": "[PRETOMANID]", "values": [{"measurement": "MIC", "setting": "[2]", "value": 0.015, "unit": "µg/mL"}]}, {"smiles": "COCCNC(=O)c1cn(Cc2ccc(F)cc2)c2ccc([N+](=O)[O-])cc2c1=O", "values": [{"measurement": "MIC", "setting": "[10]", "value": "< 0.244", "unit": "µM"}]}]}
